# Data from US4873236A, “Condensed diazepinones, processes for preparing them and pharmaceutical compositions containing these compounds” (Dr. Karl Thomae GmbH, priority 1986, dated 1989).
# Columns and labels:
# [1] = target: T1, muscarinic receptors, heart atrium (Rattus norvegicus, UniProt P10980); test: Receptor bonding test in vivo, heart atrium (3H-NMS); parameters: species or system female rats; details: for potency in the heart (in words): Table V, atrium/ventricle, vs comparison substances; for ED50: iv, 0.5 h, i.v., 113 ng/kg 3H-NMS, read-out: ID50 Heart Atrium
# T1 construct: from tissue; host or cells: heart (atrium, ventricle) of female rats, labelled in vivo
# T1 sequence (P10980 1-466): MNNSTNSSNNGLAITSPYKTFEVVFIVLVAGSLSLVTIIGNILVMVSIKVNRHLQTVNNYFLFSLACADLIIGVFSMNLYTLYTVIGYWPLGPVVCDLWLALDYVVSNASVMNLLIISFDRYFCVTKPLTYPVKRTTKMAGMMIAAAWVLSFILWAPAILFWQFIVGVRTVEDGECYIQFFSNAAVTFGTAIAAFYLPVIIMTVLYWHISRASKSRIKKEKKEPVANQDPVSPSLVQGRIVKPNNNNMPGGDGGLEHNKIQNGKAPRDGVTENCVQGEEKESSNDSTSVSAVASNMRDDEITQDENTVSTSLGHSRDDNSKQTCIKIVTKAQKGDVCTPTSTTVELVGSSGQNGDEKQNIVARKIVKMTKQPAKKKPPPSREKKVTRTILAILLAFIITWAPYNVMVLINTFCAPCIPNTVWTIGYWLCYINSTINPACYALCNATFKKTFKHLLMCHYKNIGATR
# Description: (§1) For these experiments, female rats with a body weight of about 200 g were used. Before the start of the test the animals were anaesthetised with a dosage of 1.25 g/kg of urethane. The animals were each given the prescribed dosage of test substance by intravenous injection. After 15 minutes, 113 ng/kg of ^3 H-N-methylscopolamine (^3 H-NMS) were administered by the same route. After another 15 minutes the animals were killed and the heart, bronchi and lachrymal glands were removed. These organs were dissolved in Soluene R and the radioactivity was determined. The measurements were assumed to be total bonding. […] ID50 values were determined for the individual organs using these tests.
# [2] = tested on: salivation; test: Salivation-inhibiting effect on the rat (pilocarpine); type: in vivo, male THOM rats; details: for ED50: Rattus norvegicus, iv, pilocarpine 2 mg/kg s.c., 50% reduction of saliva volume, read-out: Salivation inhibition (rat) ED50
# Description: The secretion of saliva was triggered by subcutaneous administration of 2 mg/kg of pilocarpine. The saliva was soaked up with blotting paper and the area occupied by the saliva was determined by planimetry every 5 minutes. The dosage of substance which reduced the volume of saliva by 50% was determined graphically.
# [3] = target: T2, muscarinic receptors of the atrium (Cavia porcellus, UniProt H0VRN8); test: Dissociation constants (KB) on spontaneously beating right atrium, methacholine antagonism; parameters: species or system guinea pig; details: guinea pig spontaneously beating atrium, methacholine, 30 min contact; read-out: KB Heart (dissociation constant)
# T2 construct: In the isolated, spontaneously beating right atrium; from tissue; host or cells: isolated right atrium of guinea pig
# T2 sequence (H0VRN8 1-466): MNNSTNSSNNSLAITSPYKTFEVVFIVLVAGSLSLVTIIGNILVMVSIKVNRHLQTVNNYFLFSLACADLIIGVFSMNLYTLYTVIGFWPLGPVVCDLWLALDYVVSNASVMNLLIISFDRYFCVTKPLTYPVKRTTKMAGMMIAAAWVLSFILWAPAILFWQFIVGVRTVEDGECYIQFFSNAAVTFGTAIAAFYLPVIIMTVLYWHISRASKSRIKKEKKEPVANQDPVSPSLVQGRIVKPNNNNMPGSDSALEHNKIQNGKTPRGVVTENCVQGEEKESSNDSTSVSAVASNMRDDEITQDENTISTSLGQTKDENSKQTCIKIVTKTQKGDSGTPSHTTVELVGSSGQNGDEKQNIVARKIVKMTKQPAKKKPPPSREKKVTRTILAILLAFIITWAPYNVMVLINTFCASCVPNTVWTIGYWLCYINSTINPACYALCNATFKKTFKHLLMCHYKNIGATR
# Description: Dissociation constants (KB values) were determined in vitro on the guinea pig ileum and spontaneously beating atrium. The ileum was removed and incubated in Krebs-Henseleit solution in an organ bath. Contractions were produced by means of increasing concentrations of methacholine (M) so that a full concentration-activity curve could be plotted. Then M was washed out, the test substance was added and kept in contact for 30 minutes and again a concentration-activity curve was plotted with M. The dissociation constant was calculated according to Arunlakshana and Schild (Brit. J. Pharmacol. 14, 48, 1959) from the dosage ratio (DR), i.e. the extent of displacement of the concentration-activity curve.
# In the isolated, spontaneously beating right atrium M reduced the heart rate as a function of the concentration. This effect was stopped by the addition of an antimuscarinic. Dissociation constants for the muscarinic receptors of the atrium were obtained in the same way as described above. A comparison of the dissociation constants measured in the two different tissues made it possible to identify cardioselective substances.
# [4] = target: T3, muscarinic receptors, submandibular gland (Rattus norvegicus, UniProt P08483); test: Receptor bonding test in vitro, submandibular gland (displacement of 3H-N-methylscopolamine); type: binding, Sprague-Dawley rats; details: 0.3 nmolar 3H-NMS, 30° C., 45 min
# T3 construct: After removal of the heart and submandibular gland; from tissue; host or cells: submandibular gland of male Sprague-Dawley rats, homogenate
# [5] = target: T4, muscarinic receptors, lachrymal glands (Rattus norvegicus, UniProt P08483); test: Receptor bonding test in vivo, lachrymal glands (3H-NMS); parameters: species or system female rats; details: iv, 0.5 h, in vivo binding, i.v., 113 ng/kg 3H-NMS, read-out: ID50 Lachrymal glands
# T4 construct: from tissue; host or cells: lachrymal glands of female rats, labelled in vivo
# Description: as §1
# T3 sequence (P08483 whole entry): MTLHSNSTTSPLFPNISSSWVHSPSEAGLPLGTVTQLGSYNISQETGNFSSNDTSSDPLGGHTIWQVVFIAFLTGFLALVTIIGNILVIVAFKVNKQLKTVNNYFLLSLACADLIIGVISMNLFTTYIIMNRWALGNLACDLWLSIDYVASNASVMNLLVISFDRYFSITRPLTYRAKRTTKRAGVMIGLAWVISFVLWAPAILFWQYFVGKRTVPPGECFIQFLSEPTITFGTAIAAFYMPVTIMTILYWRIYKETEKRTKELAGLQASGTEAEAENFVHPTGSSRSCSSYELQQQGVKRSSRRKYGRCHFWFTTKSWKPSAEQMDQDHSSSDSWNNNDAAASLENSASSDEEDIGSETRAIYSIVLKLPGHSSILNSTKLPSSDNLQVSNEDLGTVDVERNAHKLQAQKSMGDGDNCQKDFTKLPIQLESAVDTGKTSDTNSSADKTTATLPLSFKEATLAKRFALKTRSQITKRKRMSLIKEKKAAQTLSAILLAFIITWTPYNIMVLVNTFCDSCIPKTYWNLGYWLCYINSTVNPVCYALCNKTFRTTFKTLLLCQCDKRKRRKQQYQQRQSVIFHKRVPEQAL
# T4 sequence (P08483 whole entry): as above
Structure (SMILES),potency in the heart (in words) [1],"ED50 ([1]; in vivo binding, rat) [mg/kg]",ED50 [2] [mg/kg],Kb [3] [nM],IC50 [4] [nM],"Ratio of ID50 lachrymal gland to ID50 atrium ([1]; in vivo binding, rat, 30 min)","Ratio of salivation inhibition to M2 activity ([2]; rat, i.v. ED50 values)",ED50 [5] [mg/kg]
"CCN(CC)CC1CCCCN1CCNC(=O)N1c2cc(Cl)ccc2C(=O)Nc2cccnc21 (stereo not drawn) [Substance C, 9-chloro-11-[[[2-[2-[(diethylamino)methyl]-piperidin-1-yl]ethyl]amino]carbonyl]-5,11-dihydro-6H-pyrido[2,3-b][1,4]benzodiazepin-6-one]",decisive improvement in potency compared with substances Y and Y in the heart,0.2,1.4,4.9,150,,,
"CCN(CC)CC1CCCCN1CCNC(=O)N1c2ccccc2NC(=O)c2csc(C)c21 (stereo not drawn) [Substance B, 4-[[[2-[2-[(diethylamino)methyl]-piperidin-1-yl]ethyl]amino]carbonyl]-4,9-dihydro-3-methyl-10H-thieno[3,4-b][1,5]benzodiazepin-10-one]",decisive improvement in potency compared with substances Y and Y in the heart,0.025,0.078,0.24,15,> 40,9.75,> 1
"CCCN(CCC)CC1CCCCN1CCNC(=O)N1c2ccccc2C(=O)Nc2cccnc21 (stereo not drawn) [Substance A, 5,11-dihydro-11-[[[2-[2-[(dipropylamino)methyl]-piperidin-1-yl]ethyl]amino]carbonyl]-6H-pyrido[2,3-b][1,4]benzodiazepin-6-one]",decisive improvement in potency compared with substances Y and Y in the heart,0.2,0.458,2.45,,,,> 10
